From patent publication US10662156B2, “Guanidine derivative and medical use thereof” (Toray Industries, Inc., priority 2016, dated 2020)
pIC50: −log10 of the molar value. Structures can show the parent of a compound that is named as a salt.

Target: recombinant GST fusion MALT1 (human MALT1) (Homo sapiens (Human), UniProt Q9UDY8)
Assay: Evaluation of inhibition of protease activity of MALT1 (cleavage of fluorescent peptide substrate Ac-LRSR-AMC)
Type: biochemical
Details: substrate Ac-LRSR-AMC 20 μmol/L, 30° C. for 80 minutes
Method: The guanidine derivative (I) or the pharmacologically acceptable salt thereof was evaluated for its inhibition of the protease activity of MALT1 in an in vitro experimental system in accordance with the method described in the literature (Cancer Cell, 2012, Vol. 22, p. 825-837). Specifically, the evaluation was conducted by measuring the degree of reduction in fluorescence value by the compound relative to elevation in fluorescence value resulting from the cleavage of a fluorescently labeled artificial peptide substrate by recombinant MALT1.
A) Preparation of Recombinant GST Fusion MALT1:
Full-length cDNA of human MALT1 gene (GenBank accession No: AB026118.1) amplified by PCR was inserted in flame to a SalI site located downstream of GST gene in a pGEX6P3 vector (GE Healthcare Japan Corp.) to prepare a vector (hereinafter, referred to as a pGEX6P3-MALT1 vector). Subsequently, E. coli for protein expression (BL21-RIL-codon plus-DE3, Agilent Technologies, Inc.) was transformed with the pGEX6P3-MALT1 vector and then analyzed by ampicillin resistance screening and colony PCR to obtain an E. coli strain expressing recombinant GST fusion MALT1. Protein expression was induced with isopropyl-(3-thiogalactopyranoside. After the expression induction, E. coli precipitates were recovered by centrifugation from the E. coli culture solution, and the E. coli precipitates were homogenized and then centrifuged to obtain a supernatant. The supernatant was purified using GSTrap FF column (GE Healthcare Japan Corp.) to obtain recombinant GST fusion MALT1.
B) Evaluation of Inhibition of Protease Activity of MALT1:
To 89 μL of an enzyme solution ([…] GST fusion MALT1, 50 mmol/L MES, 150 mmol/L NaCl, 10% sucrose, 0.1% CHAPS, 10 mmol/L dithiothreitol, and 1 mol/L tri-ammonium citrate) per specimen, 1 μL of a test compound (DMSO-diluted solution) of each concentration was added to prepare a mixed solution. The mixed solution was incubated at room temperature for 30 minutes, followed by the measurement of the fluorescence value of the mixed solution (fluorescence value of the first measurement) (Ex: 380 nm, Em: 460 nm; Envision (Perkin Elmer Inc.)). Next, 10 μL of 200 μmol/L substrate (Ac-LRSR-AMC, SM Biochemicals LLC) was added (final concentration: 20 μmol/L) to the mixed solution, and the mixture was reacted by incubation at 30° C. for 80 minutes, followed by the measurement of the fluorescence value of the reaction solution (fluorescence value of the second measurement) (Ex: 380 nm, Em: 460 nm; Envision (Perkin Elmer Inc.)). A “well nonsupplemented with the test compound (only DMSO was added), nonsupplemented with the enzyme and supplemented with the substrate”, and a “well nonsupplemented with the test compound (only DMSO was added), supplemented with the enzyme and supplemented with the substrate” were established.
The fluorescence value of the first measurement was defined as “F1”, and the fluorescence value of the second measurement was defined as “F2”. F2−F1 of the “well nonsupplemented with the test compound (only DMSO was added), nonsupplemented with the enzyme and supplemented with the substrate” was defined as “Fback”, F2−F1 of the “well nonsupplemented with the test compound (only DMSO was added), supplemented with the enzyme and supplemented with the substrate” was defined as “Fpositive”, and F2−F1 of the “well supplemented with the test compound, supplemented with the enzyme and supplemented with the substrate” was defined as “Fsample”. The rate of inhibition (%) of the protease activity of MALT1 by the test compound was calculated according to the following expression. Rate of inhibition (%)=100×(1−(Fsample−Fback)/(Fpositive−Fback))

recombinant GST fusion MALT1 (human MALT1), sequence (Q9UDY8 whole entry, the tested form may be a part): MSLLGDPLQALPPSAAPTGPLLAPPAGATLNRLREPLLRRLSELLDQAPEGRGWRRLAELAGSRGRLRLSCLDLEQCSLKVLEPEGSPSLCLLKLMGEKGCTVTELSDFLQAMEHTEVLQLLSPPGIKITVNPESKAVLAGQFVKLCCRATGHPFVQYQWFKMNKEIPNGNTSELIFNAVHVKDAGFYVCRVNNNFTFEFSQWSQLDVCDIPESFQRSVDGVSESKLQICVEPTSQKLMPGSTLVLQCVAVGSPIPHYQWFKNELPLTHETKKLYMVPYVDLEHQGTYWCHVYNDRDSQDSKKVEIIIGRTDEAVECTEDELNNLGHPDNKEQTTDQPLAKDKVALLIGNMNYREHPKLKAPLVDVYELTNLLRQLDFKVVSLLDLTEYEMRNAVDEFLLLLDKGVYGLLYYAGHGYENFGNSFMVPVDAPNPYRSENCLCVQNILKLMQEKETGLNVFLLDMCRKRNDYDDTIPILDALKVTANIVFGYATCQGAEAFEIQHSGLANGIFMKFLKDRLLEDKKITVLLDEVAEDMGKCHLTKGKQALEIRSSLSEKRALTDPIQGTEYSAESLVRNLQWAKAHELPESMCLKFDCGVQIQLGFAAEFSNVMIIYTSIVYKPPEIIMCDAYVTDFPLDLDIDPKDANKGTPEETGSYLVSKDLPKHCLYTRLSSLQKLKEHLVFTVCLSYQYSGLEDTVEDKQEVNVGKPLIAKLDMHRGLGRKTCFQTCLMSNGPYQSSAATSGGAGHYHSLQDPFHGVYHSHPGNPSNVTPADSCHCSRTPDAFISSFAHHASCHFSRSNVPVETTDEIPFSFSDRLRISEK

Row | Compound | pIC50
1 | CC(N/C(N)=N/S(=O)(=O)c1ccccc1)c1cnc(-c2ccc(Cl)cc2)c(-c2ccc(Cl)cc2)c1 (stereo not shown) [Compound of Example 46, N-(amino((1-(5,6-bis(4-chlorophenyl)pyridin-3-yl)ethyl)amino)methylene)benzenesulfonamide] | 6.27
2 | N/C(=N\C(=O)c1ccco1)NCc1cnc(-c2ccc(Cl)cc2)c(-c2ccc(Cl)cc2)c1 [Compound of Example 78, N-(amino(((5,6-bis(4-chlorophenyl)pyridin-3-yl)methyl)amino)methylene)furan-2-carboxamide] | 6.12
3 | N#Cc1ccc(-c2cc(CN/C(N)=N/S(=O)(=O)c3ccccc3)cnc2-c2ccc(Cl)cc2)cc1 [Compound of Example 19, N-(amino(((6-(4-chlorophenyl)-5-(4-cyanophenyl)pyridin-3-yl)methyl)amino)methylene)benzenesulfonamide] | 5.82
4 | N/C(=N\S(=O)(=O)c1ccccc1)NCc1cnc(-c2ccc(Cl)cc2F)c(-c2ccc(Cl)cc2)c1 [Compound of Example 36, N-(amino(((6-(4-chloro-2-fluorophenyl)-5-(4-chlorophenyl)pyridin-3-yl)methyl)amino)methylene)benzenesulfonamide] | 6.63
5 | N#Cc1ccc(-c2ncc(CN/C(N)=N/S(=O)(=O)c3ccccc3)cc2-c2ccc(Cl)cc2)cc1 [Compound of Example 7, N-(amino(((5-(4-chlorophenyl)-6-(4-cyanophenyl)pyridin-3-yl)methyl)amino)methylene)benzenesulfonamide] | 6.72
6 | N/C(=N\C(=O)C1CCC(F)(F)CC1)NCc1cnc(-c2ccc(Cl)cc2)c(-c2ccc(Cl)cc2)c1 [Compound of Example 85, N-(amino(((5,6-bis(4-chlorophenyl)pyridin-3-yl)methyl)amino)methylene)-4,4-difluorocyclohexanecarboxamide] | 6.43
7 | NC(=NS(=O)(=O)c1ccccc1)NCc1ccc(-c2ccc(Cl)cc2)c(-c2ccc(Cl)cc2)n1 [Compound of Example 45, N-(amino(((5,6-bis(4-chlorophenyl)pyridin-2-yl)methyl)amino)methylene)benzenesulfonamide Hydrochloride] | 6.66
8 | N/C(=N\S(=O)(=O)c1ccoc1)NCc1cnc(-c2ccc(Cl)cc2)c(-c2ccc(Cl)cc2)c1 [Compound of Example 32, N-(amino(((5,6-bis(4-chlorophenyl)pyridin-3-yl)methyl)amino)methylene)furan-3-sulfonamide] | 6.81
9 | N/C(=N\C(=O)c1ccsc1)NCc1cnc(-c2ccc(Cl)cc2)c(-c2ccc(Cl)cc2)c1 [Compound of Example 68, N-(amino(((5,6-bis(4-chlorophenyl)pyridin-3-yl)methyl)amino)methylene)thiophene-3-carboxamide] | 6.24
10 | NC(=O)/N=C(\N)NCc1cnc(-c2ccc(Cl)cc2)c(-c2ccc(Cl)cc2)c1 [Compound of Example 41, 1-(amino(((5,6-bis(4-chlorophenyl)pyridin-3-yl)methyl)amino)methylene)urea Hydrochloride] | 6.17
11 | N/C(=N\S(=O)(=O)c1ccccc1)NCc1cnc(-c2ccc(Cl)cc2)c(-c2ccc(C(F)(F)F)cc2)c1 [Compound of Example 21, N-(Amino(((6-(4-chlorophenyl)-5-(4-(trifluoromethyl)phenyl)pyridin-3-yl)methyl)amino)methylene)benzenesulfonamide] | 5.99
12 | COCC(=O)/N=C(\N)NCc1cnc(-c2ccc(Cl)cc2)c(-c2ccc(Cl)cc2)c1 [Compound of Example 63, N-(amino(((5,6-bis(4-chlorophenyl)pyridin-3-yl)methyl)amino)methylene)-2-methoxyacetamide] | 6.19
13 | N/C(=N\C(=O)CC(F)(F)F)NCc1cnc(-c2ccc(Cl)cc2)c(-c2ccc(Cl)cc2)c1 [Compound of Example 84, N-(amino(((5,6-bis(4-chlorophenyl)pyridin-3-yl)methyl)amino)methylene)-3,3,3-trifluoropropanamide] | 5.86
14 | N/C(=N\S(=O)(=O)c1ccccc1)NCc1cnc(-c2ccc(F)cc2)c(-c2ccc(Cl)cc2)c1 [Compound of Example 8, N-(amino(((5-(4-chlorophenyl)-6-(4-fluorophenyl)pyridin-3-yl)methyl)amino)methylene)benzenesulfonamide] | 5.89
15 | N/C(=N\S(=O)(=O)c1cccc(O)c1)NCc1cnc(-c2ccc(Cl)cc2)c(-c2ccc(Cl)cc2)c1 [Compound of Example 96, N-(amino(((5,6-bis(4-chlorophenyl)pyridin-3-yl)methyl)amino)methylene)-3-hydroxybenzenesulfonamide Hydrochloride] | 5.67
16 | N/C(=N\S(=O)(=O)c1ccccc1)NCc1cnc(-c2ccc(C(F)(F)F)cc2)c(-c2ccccc2)c1 [Compound of Example 93, N-(amino(((5-phenyl-6-(4-(trifluoromethyl)phenyl)pyridin-3-yl)methyl)amino)methylene)benzenesulfonamide] | 5.97
17 | Cc1ccc(-c2ncc(CN/C(N)=N/S(=O)(=O)c3ccccc3)cc2-c2ccc(C(F)(F)F)cc2)cc1 [Compound of Example 25, N-(amino(((6-(4-methylphenyl)-5-(4-(trifluoromethyl)phenyl)pyridin-3-yl)methyl)amino)methylene)benzenesulfonamide hydrochloride] | 5.74
18 | Cc1nc(-c2ccc(Cl)cc2)c(-c2ccc(Cl)cc2)cc1CN/C(N)=N/S(=O)(=O)c1ccccc1 [Compound of Example 90, N-(amino(((5,6-bis(4-chlorophenyl)-2-methylpyridin-3-yl)methyl)amino)methylene)benzenesulfonamide] | 6.63
19 | COc1ccc(-c2cc(CN/C(N)=N/S(=O)(=O)c3ccccc3)cnc2-c2ccc(Cl)cc2)cc1 [Compound of Example 18, N-(Amino(((6-(4-chlorophenyl)-5-(4-methoxyphenyl)pyridin-3-yl)methyl)amino)methylene)benzenesulfonamide] | 7.62
20 | N/C(=N\S(=O)(=O)c1ccccc1)NCc1cc(-c2ccc(Cl)cc2)c(-c2ccc(Cl)cc2)nc1O [Compound of Example 91, N-(amino(((5,6-bis(4-chlorophenyl)-2-hydroxypyridin-3-yl)methyl)amino)methylene)benzenesulfonamide] | 6.95
21 | CN(C)S(=O)(=O)/N=C(\N)NCc1cnc(-c2ccc(Cl)cc2)c(-c2ccc(Cl)cc2)c1 [Compound of Example 60, ((2-amino-2-(((5,6-bis(4-chlorophenyl)pyridin-3-yl)methyl)amino)-1-azavinyl)sulfonyl)dimethylamine] | 5.88
22 | COc1ccc(-c2cc(CN/C(N)=N/S(=O)(=O)c3ccccc3)cnc2-c2ccc(C)cc2)cc1 [Compound of Example 24, N-(amino(((5-(4-methoxyphenyl)-6-(4-methylphenyl)pyridin-3-yl)methyl)amino)methylene)benzenesulfoamide] | 6.85
23 | Cc1ccc(-c2ncc(CN/C(N)=N/S(=O)(=O)c3ccccc3)cc2-c2ccc(Cl)cc2)cc1 [Compound of Example 5, N-(amino(((5-(4-chlorophenyl)-6-(4-methylphenyl)pyridin-3-yl)methyl)amino)methylene)benzenesulfonamide] | 7.18
24 | N/C(=N\S(=O)(=O)Cc1ccccc1)NCc1cnc(-c2ccc(Cl)cc2)c(-c2ccc(Cl)cc2)c1 [Compound of Example 59, N-(amino(((5,6-bis(4-chlorophenyl)pyridin-3-yl)methyl)amino)methylene)-1-phenylmethanesulfonamide] | 6.13
25 | N/C(=N\S(=O)(=O)c1ccccc1F)NCc1cnc(-c2ccc(Cl)cc2)c(-c2ccc(Cl)cc2)c1 [Compound of Example 26, N-(amino(((5,6-bis(4-chlorophenyl)pyridin-3-yl)methyl)amino)methylene)-2-fluorobenzenesulfonamide] | 6.50
